Experimental findings from patent publication US12440484B2, “1,3,4-oxadiazole homophthalimide derivative compounds as histone deacetylase 6 inhibitor, and the pharmaceutical composition comprising the same” (Chong Kun Dang Pharmaceutical Corp., priority 2019, dated 2025) are described below.

For one experiment, the target named is HDAC6 human recombinant (Homo sapiens (Human), UniProt Q9UBN7). The experiment is described as follows: HDAC enzyme activity inhibition (in vitro), HDAC6 assay. Format: biochemical. The conditions noted are these: samples at 0.1, 1, 10, 100 and 1000 nM; 37° C. 60 minutes; fluorescence Ex 390, Em 460.
HDAC6 human recombinant, sequence (Q9UBN7 whole entry): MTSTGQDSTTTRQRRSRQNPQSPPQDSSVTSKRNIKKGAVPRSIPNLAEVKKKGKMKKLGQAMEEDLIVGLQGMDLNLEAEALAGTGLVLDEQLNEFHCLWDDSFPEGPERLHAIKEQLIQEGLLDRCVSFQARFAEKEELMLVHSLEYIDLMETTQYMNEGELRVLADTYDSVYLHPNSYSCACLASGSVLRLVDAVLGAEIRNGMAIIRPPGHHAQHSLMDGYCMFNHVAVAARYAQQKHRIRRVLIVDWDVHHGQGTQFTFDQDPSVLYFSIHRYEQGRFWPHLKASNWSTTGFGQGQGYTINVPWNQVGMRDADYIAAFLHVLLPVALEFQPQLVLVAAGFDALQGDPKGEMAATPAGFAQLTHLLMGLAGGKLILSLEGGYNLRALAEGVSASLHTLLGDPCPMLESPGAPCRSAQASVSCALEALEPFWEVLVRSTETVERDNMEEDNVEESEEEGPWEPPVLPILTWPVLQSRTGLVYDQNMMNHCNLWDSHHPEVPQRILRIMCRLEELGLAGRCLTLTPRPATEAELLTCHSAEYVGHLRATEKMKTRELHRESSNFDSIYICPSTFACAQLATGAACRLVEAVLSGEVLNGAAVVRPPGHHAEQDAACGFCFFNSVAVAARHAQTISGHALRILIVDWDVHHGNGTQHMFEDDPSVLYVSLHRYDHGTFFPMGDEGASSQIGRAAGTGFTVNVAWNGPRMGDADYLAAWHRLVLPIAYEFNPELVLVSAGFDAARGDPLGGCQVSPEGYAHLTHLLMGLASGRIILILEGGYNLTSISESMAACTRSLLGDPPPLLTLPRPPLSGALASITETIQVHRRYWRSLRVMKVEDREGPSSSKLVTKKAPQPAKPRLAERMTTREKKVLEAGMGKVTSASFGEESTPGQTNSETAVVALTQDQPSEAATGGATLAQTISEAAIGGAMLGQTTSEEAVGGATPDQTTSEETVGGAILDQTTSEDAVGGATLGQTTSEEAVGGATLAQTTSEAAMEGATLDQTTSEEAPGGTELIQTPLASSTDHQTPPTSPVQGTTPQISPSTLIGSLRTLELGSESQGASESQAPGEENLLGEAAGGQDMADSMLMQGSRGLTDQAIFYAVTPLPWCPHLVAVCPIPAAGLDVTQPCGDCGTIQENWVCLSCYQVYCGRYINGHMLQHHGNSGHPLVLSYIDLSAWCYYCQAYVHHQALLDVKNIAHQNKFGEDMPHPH
In a further experiment the target is HDAC1 (Homo sapiens (Human), UniProt Q13547). The experiment is described as follows: HDAC enzyme activity inhibition (in vitro), HDAC1 Fluorimetric Drug Discovery Assay Kit. In kind it is biochemical. Conditions: samples at 100, 1000 and 10000 nM; 37° C. 60 minutes; fluorescence Ex 390, Em 460.
HDAC1, sequence (Q13547 whole entry): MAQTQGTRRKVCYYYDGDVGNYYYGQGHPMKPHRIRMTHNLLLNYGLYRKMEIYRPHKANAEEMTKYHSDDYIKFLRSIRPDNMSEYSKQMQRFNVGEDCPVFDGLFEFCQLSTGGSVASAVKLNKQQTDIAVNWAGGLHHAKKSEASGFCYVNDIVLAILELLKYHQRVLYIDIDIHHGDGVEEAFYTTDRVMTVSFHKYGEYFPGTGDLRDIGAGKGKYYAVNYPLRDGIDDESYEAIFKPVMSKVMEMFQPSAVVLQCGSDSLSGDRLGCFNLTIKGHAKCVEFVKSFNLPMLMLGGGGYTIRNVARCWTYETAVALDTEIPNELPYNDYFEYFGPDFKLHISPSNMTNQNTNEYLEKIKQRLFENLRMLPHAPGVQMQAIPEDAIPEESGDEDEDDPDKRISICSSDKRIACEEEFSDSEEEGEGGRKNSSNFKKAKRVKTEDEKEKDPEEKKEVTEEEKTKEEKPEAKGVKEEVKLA

For the molecule `CC1(C)C(=O)N(Cc2ccc(-c3nnc(C(F)F)o3)cn2)C(=O)c2cc(-c3cccc4[nH]ccc34)ccc21` [Compound 115, 2-((5-(5-(difluoromethyl)-1,3,4-oxadiazole-2-yl)pyridine-2-yl)methyl)-7-(1H-indole-4-yl)-4,4-dimethylisoquinoline-1,3(2H,4H)-dione], the IC50 at HDAC6 human recombinant is 59 nM; on HDAC1, greater than 10000 nM.

As for `CC1(C)C(=O)N(Cc2ccc(-c3nnc(C(F)F)o3)cn2)C(=O)c2cc(-c3cccnc3)ccc21` [Compound 111, 2-((5-(5-(difluoromethyl)-1,3,4-oxadiazole-2-yl)pyridine-2-yl)methyl)-4,4-dimethyl-7-(pyridine-3-yl)isoquinoline-1,3(2H,4H)-dione], the IC50 was 17 nM on HDAC6 human recombinant and greater than 10000 nM at HDAC1.

With `Cc1ccc(-c2cccc3c2C(=O)N(Cc2ccc(-c4nnc(C(F)F)o4)cn2)C(=O)C3(C)C)o1` [Compound 93, 2-((5-(5-(difluoromethyl)-1,3,4-oxadiazole-2-yl)pyridine-2-yl)methyl)-4,4-dimethyl-8-(5-methylfuran-2-yl)isoquinoline-1,3(2H,4H)-dione], the results for the IC50 at HDAC6 human recombinant and on HDAC1 were 143 nM and greater than 10000 nM, respectively.

With `CC1(C)C(=O)N(Cc2ccc(-c3nnc(C(F)F)o3)cn2)C(=O)c2cc(C3=CC[S+]([O-])CC3)ccc21` (stereo not drawn) [Compound 123, 2-((5-(5-(difluoromethyl)-1,3,4-oxadiazole-2-yl)pyridine-2-yl)methyl)-4,4-dimethyl-7-(1-oxydo-3,6-dihydro-2H-thiopyran-4-yl)isoquinoline-1,3(2H,4H)-dione], the IC50 on HDAC6 human recombinant is 17 nM; against HDAC1, greater than 10000 nM.

Consider `Cn1c(=O)n(Cc2ccc(-c3nnc(C(F)F)o3)cn2)c(=O)c2cc(F)ccc21` [Compound 70, 3-((5-(5-(difluoromethyl)-1,3,4-oxadiazole-2-yl)pyridine-2-yl)methyl)-6-fluoro-1-methylquinazoline-2,4(1H,3H)-dione], for which the IC50 on HDAC6 human recombinant is 59 nM; on HDAC1 it was greater than 10000 nM.

For the molecule `COCCn1c(=O)c2ccccc2n(Cc2ccc(-c3nnc(C(F)F)o3)cn2)c1=O` [Compound 76, 1-((5-(5-(difluoromethyl)-1,3,4-oxadiazole-2-yl)pyridine-2-yl)methyl)-3-(2-methoxyethyl)quinazoline-2,4(1H,3H)-dione], the concentration for half-maximal inhibition (IC50) is 79 nM at HDAC6 human recombinant and greater than 10000 nM against HDAC1.

Consider `CC(C)N1CCN(c2ccc3c(c2)C(C)(C)C(=O)N(Cc2ccc(-c4nnc(C(F)F)o4)cn2)C3=O)CC1` [Compound 26, 2-((5-(5-(difluoromethyl)-1,3,4-oxadiazole-2-yl)pyridine-2-yl)methyl)-6-(4-isopropylpiperazine-1-yl)-4,4-dimethylisoquinoline-1,3(2H,4H)-dione], for which the results for the half-inhibitory concentration (IC50) at HDAC6 human recombinant and against HDAC1 were 22 nM and greater than 10000 nM, respectively.

For `CC1(C)C(=O)N(Cc2ccc(-c3nnc(C(F)F)o3)cn2)C(=O)c2cc(-c3cccc(F)c3)ccc21` [Compound 108, 2-((5-(5-(difluoromethyl)-1,3,4-oxadiazole-2-yl)pyridine-2-yl)methyl)-7-(3-fluorophenyl)-4,4-dimethylisoquinoline-1,3(2H,4H)-dione], the half-inhibitory concentration (IC50) on HDAC6 human recombinant was 211 nM; against HDAC1, greater than 10000 nM.

`CC1(C)C(=O)N(Cc2ccc(-c3nnc(C(F)F)o3)cn2)C(=O)c2c(-c3ccco3)cccc21` [Compound 82, 2-((5-(5-(difluoromethyl)-1,3,4-oxadiazole-2-yl)pyridine-2-yl)methyl)-8-(furan-2-yl)-4,4-dimethylisoquinoline-1,3(2H,4H)-dione]: the IC50 at HDAC6 human recombinant is 92 nM; at HDAC1, greater than 10000 nM.

`CC1(C)C(=O)N(Cc2ccc(-c3nnc(C(F)F)o3)cn2)C(=O)c2ccc(N3CCN(C(C)(C)C)CC3)cc21` [Compound 36, 6-(4-(tert-butyl)piperazine-1-yl)-2-((5-(5-(difluoromethyl)-1,3,4-oxadiazole-2-yl)pyridine-2-yl)methyl)-4,4-dimethylisoquinoline-1,3(2H,4H)-dione]: the figures for the 50% inhibitory concentration (IC50) at HDAC6 human recombinant and at HDAC1 were 24 nM and greater than 10000 nM, respectively.

Consider `CC(F)(F)CN1CCN(c2ccc3c(c2)C(C)(C)C(=O)N(Cc2ccc(-c4nnc(C(F)F)o4)cn2)C3=O)CC1` [Compound 138, 2-((5-(5-(difluoromethyl)-1,3,4-oxadiazole-2-yl)pyridine-2-yl)methyl)-6-(4-(2,2-difluoropropyl)piperazine-1-yl)-4,4-dimethylisoquinoline-1,3(2H,4H)-dione], for which the figures for the IC50 on HDAC6 human recombinant and at HDAC1 were 96 nM and greater than 10000 nM, respectively.

With `COc1ccc(Cn2c(=O)n(Cc3ccc(-c4nnc(C(F)F)o4)cn3)c(=O)c3ccccc32)cc1` [Compound 13, 3-((5-(5-(difluoromethyl)-1,3,4-oxadiazole-2-yl)pyridine-2-yl)methyl)-1-(4-methoxybenzyl)quinazoline-2,4(1H,3H)-dione], the concentration for half-maximal inhibition (IC50) at HDAC6 human recombinant is 225 nM; against HDAC1, greater than 10000 nM.

For `COc1ccc(-c2cccc3c2C(=O)N(Cc2ccc(-c4nnc(C(F)F)o4)cn2)C(=O)C3(C)C)cn1` [Compound 94, 2-((5-(5-(difluoromethyl)-1,3,4-oxadiazole-2-yl)pyridine-2-yl)methyl)-8-(6-methoxypyridine-3-yl)-4,4-dimethylisoquinoline-1,3(2H,4H)-dione], the IC50 on HDAC6 human recombinant is 116 nM; against HDAC1, greater than 10000 nM.

`CC1(C)C(=O)N(Cc2ccc(-c3nnc(C(F)F)o3)cn2)C(=O)c2ccc(C3CCN(C4COC4)CC3)cc21` [Compound 61, 2-((5-(5-(difluoromethyl)-1,3,4-oxadiazole-2-yl)pyridine-2-yl)methyl)-4,4-dimethyl-6-(1-(oxetan-3-yl)piperidine-4-yl)isoquinoline-1,3(2H,4H)-dione]: the IC50 at HDAC6 human recombinant was 35 nM; at HDAC1 it was greater than 10000 nM.

For `CC1(C)C(=O)N(Cc2ccc(-c3nnc(C(F)F)o3)cn2)C(=O)c2ccc(-c3ccncc3)cc21` [Compound 105, 2-((5-(5-(difluoromethyl)-1,3,4-oxadiazole-2-yl)pyridine-2-yl)methyl)-4,4-dimethyl-6-(pyridine-4-yl)isoquinoline-1,3(2H,4H)-dione], the IC50 was 10 nM at HDAC6 human recombinant and greater than 10000 nM against HDAC1.

As for `CCCN1CCC(c2ccc3c(c2)C(=O)N(Cc2ccc(-c4nnc(C(F)F)o4)cn2)C(=O)C3(C)C)CC1` [Compound 143, 2-((5-(5-(difluoromethyl)-1,3,4-oxadiazole-2-yl)pyridine-2-yl)methyl)-4,4-dimethyl-7-(1-propylpiperidine-4-yl) isoquinoline-1,3 (2H,4H)-dione], the IC50 is 21 nM at HDAC6 human recombinant and greater than 10000 nM against HDAC1.

Consider `O=C1c2ccccc2C(=O)N1Cc1ccc(-c2nnc(C(F)F)o2)cc1F` [Compound 2, 2-(4-(5-(difluoromethyl)-1,3,4-oxadiazole-2-yl)-2-fluorobenzyl)isoindoline-1,3-dione], for which the IC50 at HDAC6 human recombinant is 561 nM; at HDAC1 it was greater than 10000 nM.

Take `CC(C)(C)OC(=O)N1CCN(c2ccc3c(c2)C(C)(C)C(=O)N(Cc2ccc(-c4nnc(C(F)F)o4)cn2)C3=O)CC12CC2` [Compound 79, tert-butyl 7-(2-((5-(5-(difluoromethyl)-1,3,4-oxadiazole-2-yl)pyridine-2-yl)methyl)-4,4-dimethyl-1,3-dioxo-1,2,3,4-tetrahydroisoquinoline-6-yl)-4,7-diazaspiro[2.5]octane-4-carboxylate]: the 50% inhibitory concentration (IC50) at HDAC6 human recombinant was 113 nM; against HDAC1 it was greater than 10000 nM.

On to `CC1(C)C(=O)N(Cc2ccc(-c3nnc(C(F)F)o3)cn2)C(=O)c2cc(Br)ccc21` [Compound 51, 7-bromo-2-((5-(5-(difluoromethyl)-1,3,4-oxadiazole-2-yl)pyridine-2-yl)methyl)-4,4-dimethylisoquinoline-1,3(2H,4H)-dione], for which the half-maximal inhibitory concentration (IC50) at HDAC6 human recombinant is 38 nM; against HDAC1, greater than 10000 nM.

With `Cn1c(=O)n(Cc2ccc(-c3nnc(C(F)F)o3)cn2)c(=O)c2ccc(-c3cccnc3)cc21` [Compound 100, 3-((5-(5-(difluoromethyl)-1,3,4-oxadiazole-2-yl)pyridine-2-yl)methyl)-1-methyl-7-(pyridine-3-yl)quinazoline-2,4(1H,3H)-dione], the values for the IC50 on HDAC6 human recombinant and at HDAC1 were 37 nM and greater than 10000 nM, respectively.

`CC(C)(C)OC(=O)N1CCC(Cn2c(=O)n(Cc3ccc(-c4nnc(C(F)F)o4)cn3)c(=O)c3cc(F)ccc32)CC1` [Compound 72, Tert-butyl 4-((3-((5-(5-(difluoromethyl)-1,3,4-oxadiazole-2-yl)pyridine-2-yl)methyl)-6-fluoro-2,4-dioxo-3,4-dihydroquinazoline-1(2H)-yl)methyl)piperidine-1-carboxylate]: the half-maximal inhibitory concentration (IC50) on HDAC6 human recombinant is 310 nM; at HDAC1, greater than 10000 nM.

With `CN1CCN(c2ccc3c(c2)C(C)(C)C(=O)N(Cc2ncc(-c4nnc(C(F)F)o4)cn2)C3=O)CC1` [Compound 153, 2-((5-(5-(difluoromethyl)-1,3,4-oxadiazole-2-yl)pyrimidine-2-yl)methyl)-4,4-dimethyl-6-(4-methylpiperazine-1-yl)isoquinoline-1,3(2H,4H)-dione], the 50% inhibitory concentration (IC50) on HDAC6 human recombinant is 118 nM; against HDAC1, greater than 10000 nM.

In the case of `CCN1CCN(c2ccc3c(c2)C(=O)N(Cc2ccc(-c4nnc(C(F)F)o4)cn2)C(=O)C3(C)C)CC1` [Compound 129, 2-((5-(5-(difluoromethyl)-1,3,4-oxadiazole-2-yl)pyridine-2-yl)methyl)-7-(4-ethylpiperazine-1-yl)-4,4-dimethylisoquinoline-1,3(2H,4H)-dione], the IC50 is 26 nM at HDAC6 human recombinant and greater than 10000 nM against HDAC1.

On to `CC(C)CCN1CCN(c2ccc3c(c2)C(=O)N(Cc2ccc(-c4nnc(C(F)F)o4)cn2)C(=O)C3(C)C)CC1` [Compound 132, 2-((5-(5-(difluoromethyl)-1,3,4-oxadiazole-2-yl)pyridine-2-yl)methyl)-7-(4-isopentylpiperazine-1-yl)-4,4-dimethylisoquinoline-1,3(2H,4H)-dione], for which the IC50 on HDAC6 human recombinant was 69 nM; against HDAC1 it was greater than 10000 nM.

As usually defined, the IC50 is the midpoint of a concentration-inhibition curve.
